Patent US7744897B2, “Human immunodeficiency virus gp41 mimetibody polypeptides” (priority 2003, dated 2010)
Like-named read-outs stand apart in the source and are kept apart here.

Key:
[1] = cited from earlier work
[2] = tested on: other isolates of HIV including an enfuvirtide-resistant strain; conditions: similar experiments
[3] = human serum, spiked at 1 mg/ml, 72 hours at 37° C., HPLC
Protocol: The stability of the T-1249 mimetibody in vitro was determined using HPLC. The T-1249 mimetibody (SEQ ID NO: 1) was spiked into human serum at 1 mg/ml. Using a C18 chromatography matrix, a peak corresponding to the T-1249 mimetibody was resolved from other serum proteins. […] Samples were taken at 0, 5, 25, and 72 hours after the addition of the T-1249 mimetibody into human serum. A background peak was used as a reference for each sample.

HIV = conditions: clinical trials; cited from earlier work

CC[C@H](C)[C@H](NC(=O)[C@H](CCC(N)=O)NC(=O)[C@H](C)NC(=O)[C@H](CCC(N)=O)NC(=O)[C@H](CCC(=O)O)NC(=O)[C@H](CC(C)C)NC(=O)[C@H](CC(C)C)NC(=O)[C@H](C)NC(=O)[C@@H](NC(=O)[C@@H](NC(=O)[C@H](CCCCN)NC(=O)[C@H](CCC(N)=O)NC(=O)[C@H](CCC(=O)O)NC(=O)[C@H](Cc1c[nH]c2ccccc12)NC(=O)[C@H](CCC(=O)O)NC(=O)[C@H](CCC(N)=O)NC(=O)[C@H](Cc1c[nH]c2ccccc12)NC(C)=O)[C@@H](C)CC)[C@@H](C)O)C(=O)N[C@@H](CCC(N)=O)C(=O)N[C@@H](CCC(N)=O)C(=O)N[C@@H](CCC(=O)O)C(=O)N[C@@H](CCCCN)C(=O)N[C@@H](CC(N)=O)C(=O)N[C@@H](CCC(=O)O)C(=O)N[C@@H](Cc1ccc(O)cc1)C(=O)N[C@@H](CCC(=O)O)C(=O)N[C@@H](CC(C)C)C(=O)N[C@@H](CCC(N)=O)C(=O)N[C@@H](CCCCN)C(=O)N[C@@H](CC(C)C)C(=O)N[C@@H](CC(=O)O)C(=O)N[C@@H](CCCCN)C(=O)N[C@@H](Cc1c[nH]c2ccccc12)C(=O)N[C@@H](C)C(=O)N[C@@H](CO)C(=O)N[C@@H](CC(C)C)C(=O)N[C@@H](Cc1c[nH]c2ccccc12)C(=O)N[C@@H](CCC(=O)O)C(=O)N[C@@H](Cc1c[nH]c2ccccc12)C(=O)N[C@@H](Cc1ccccc1)C(N)=O [T-1249 peptide]
plasma half-life ([1]; in vivo): 9 to 14 h

T-1249 mimetibody: Formula (II) polypeptide: V1 QIQ, single copy of T-1249, IgG J region, IgG1 hinge, CH2 and CH3; SEQ ID NO: 1
Activity against other isolates of HIV including an enfuvirtide-resistant strain [2]: active | T-1249 mimetibody remained intact [3]: more than 93%

enfuvirtide
plasma half-life ([1]; human, plasma): about 1.8 hours | Reduction of viral levels in infected patients (HIV): 1-2 logs
